This note sets out measurements from ChEMBL document CHEMBL4304829, “PROTAC Degradation of IRAK4 for the Treatment of Cancer” (ACS Med Chem Lett, 2019).

Structures are written as SMILES.

What all share (format): cell-based
For experiment [1], the target named is T1, Protein cereblon/Interleukin-1 receptor-associated kinase 4 (Homo sapiens) (UniProt Q9NWZ3+Q96SW2). The experiment is described as follows: Protac activity at IRAK4 in human OCl-LY10 cells assessed as increase in E3 ubiquitin ligase mediated IRAK4 degradation at 1 uM incubated for 4 hrs by Western blot analysis relative to control. (In western blotting, separated proteins are transferred to a membrane and probed.)
T1 sequence (Q96SW2 whole entry, looked up): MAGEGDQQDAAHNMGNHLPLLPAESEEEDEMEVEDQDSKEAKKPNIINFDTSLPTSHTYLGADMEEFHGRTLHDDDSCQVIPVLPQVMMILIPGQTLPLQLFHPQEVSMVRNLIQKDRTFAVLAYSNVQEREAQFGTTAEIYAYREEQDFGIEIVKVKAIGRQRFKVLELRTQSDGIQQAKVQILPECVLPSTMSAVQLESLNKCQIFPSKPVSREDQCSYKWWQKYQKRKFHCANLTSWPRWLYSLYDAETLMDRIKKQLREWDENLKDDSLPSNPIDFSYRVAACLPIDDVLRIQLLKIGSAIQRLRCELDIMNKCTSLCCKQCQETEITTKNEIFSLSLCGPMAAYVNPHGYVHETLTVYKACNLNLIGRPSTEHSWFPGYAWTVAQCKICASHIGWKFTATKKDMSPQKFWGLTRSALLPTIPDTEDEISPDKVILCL
T1 sequence (Q9NWZ3 whole entry, looked up): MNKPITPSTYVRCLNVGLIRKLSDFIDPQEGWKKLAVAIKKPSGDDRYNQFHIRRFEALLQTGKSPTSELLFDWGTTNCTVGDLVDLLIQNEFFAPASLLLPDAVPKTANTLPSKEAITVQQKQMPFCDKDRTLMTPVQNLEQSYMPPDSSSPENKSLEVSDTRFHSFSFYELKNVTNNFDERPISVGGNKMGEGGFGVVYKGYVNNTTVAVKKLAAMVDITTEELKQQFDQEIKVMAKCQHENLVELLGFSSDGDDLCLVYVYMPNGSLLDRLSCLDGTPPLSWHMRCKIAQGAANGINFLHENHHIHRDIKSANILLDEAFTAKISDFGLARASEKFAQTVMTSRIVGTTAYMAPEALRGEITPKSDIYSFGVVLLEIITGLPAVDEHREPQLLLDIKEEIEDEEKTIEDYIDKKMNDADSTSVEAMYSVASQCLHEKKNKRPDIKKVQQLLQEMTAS

In experiment [2] the target is T1, Protein cereblon/Interleukin-1 receptor-associated kinase 4 (Homo sapiens). The experiment is described as follows: Protac activity at IRAK4 in human OCl-LY10 cells assessed as increase in E3 ubiquitin ligase mediated IRAK4 degradation at 0.1 uM incubated for 4 hrs by Western blot analysis relative to control.
Experiment [3] shares this target. The experiment is described as follows: Protac activity at IRAK4 in human OCl-LY10 cells assessed as increase in E3 ubiquitin ligase mediated IRAK4 degradation at 0.01 uM incubated for 4 hrs by Western blot analysis relative to control.

With `NC(=O)c1nn(-c2ccc(C(=O)NCC3CCCCN3CCOCCNc3cccc4c3C(=O)N(C3CCC(=O)NC3=O)C4=O)cc2)cc1NC(=O)c1coc(-c2ccnc(NCC(F)(F)F)c2)n1` (stereo not given), the Activity in experiment [1], in experiment [2] and in experiment [3] was over 50% each time.
Consider `NC(=O)c1nn(-c2ccc(CNCC3CN(CCOCCNc4cccc5c4C(=O)N(C4CCC(=O)NC4=O)C5=O)CCO3)cc2)cc1NC(=O)c1coc(-c2ccnc(NCC(F)(F)F)c2)n1` (stereo not given), for which the Activity in experiment [1], in experiment [2] and in experiment [3] was over 50% throughout.
On to `CN(CCOCCCc1cccc2c1C(=O)N(C1CCC(=O)NC1=O)C2=O)Cc1ccc(-n2cc(NC(=O)c3coc(-c4ccnc(NCC5CC5)c4)n3)c(C(N)=O)n2)cc1` (stereo not given), for which the Activity was over 50% in experiment [1], over 50% in experiment [2] and over 20% in experiment [3].
Take `CN(CCOCCOCCCc1ccc2c(c1)C(=O)N(C1CCC(=O)NC1=O)C2=O)Cc1ccc(-n2cc(NC(=O)c3coc(-c4ccnc(NCC5CC5)c4)n3)c(C(N)=O)n2)cc1` (stereo not given): the Activity in experiment [1] is over 50%; in experiment [2], over 50%; in experiment [3], over 20%.
With `O=C1CCC(N2C(=O)c3cccc(NC4CCN(CCOCCOCCNC(=O)c5ccc(-n6cc(NC(=O)c7coc(-c8ccnc(NCC(F)(F)F)c8)n7)c(C(F)F)n6)cc5)CC4)c3C2=O)C(=O)N1` (stereo not given), the Activity in experiment [1], in experiment [2] and in experiment [3] was over 50% throughout.
For `O=C1CCC(n2c(=O)oc3c(CCCOCCOCCNC(=O)c4ccc(-n5cc(NC(=O)c6coc(-c7ccnc(NCC8CC8)c7)n6)c(C(F)F)n5)cc4)cccc32)C(=O)N1` (stereo not given), the Activity in experiment [1] was over 50%; in experiment [2] it was over 50%; in experiment [3], over 20%.
Turning to `CN(CCOCCOCCCc1ccc2c(c1)C(=O)N(C1CCC(=O)NC1=O)C2=O)Cc1ccc(-n2cc(NC(=O)c3coc(-c4ccncc4)n3)c(C(N)=O)n2)cc1` (stereo not given), the Activity in experiment [1] is over 50%; in experiment [2] it was over 50%; in experiment [3], over 20%.
`CN(CCOCCOCCCc1ccc2c(c1)C(=O)N(C1CCC(=O)NC1=O)C2=O)C(=O)c1ccc(-n2cc(NC(=O)c3coc(-c4ccnc(NCC5CC5)c4)n3)c(C(N)=O)n2)cc1` (stereo not given): the Activity in experiment [1], in experiment [2] and in experiment [3] was over 50% throughout.
Regarding `O=C1CCC(N2C(=O)c3cccc(NCCNCCOCCNC(=O)c4ccc(-n5cc(NC(=O)c6coc(-c7ccnc(NCC8CC8)c7)n6)c(C(F)(F)F)n5)cc4)c3C2=O)C(=O)N1` (stereo not given), the Activity in experiment [1], in experiment [2] and in experiment [3] was over 50% each time.
As to `NCc1nn(-c2ccc(C(=O)NCCOCCOCCNc3cccc4c3C(=O)N(C3CCC(=O)NC3=O)C4=O)cc2)cc1NC(=O)c1coc(-c2ccnc(NCC(F)(F)F)c2)n1` (stereo not given), the Activity in experiment [1], in experiment [2] and in experiment [3] was over 50% throughout.
